From US8741948B2, “Oral antimicrobial pharmaceutical compositions” (Cosmo Technologies Ltd., priority 2004, dated 2014)

Experiments:
Test in all cases: MIC evaluation on pathogenic bacterial strains
Assay type in all cases: cell-based
[1] = tested on: Enterobacter cloacae (ATCC 17446431)
Excerpt: (§1) In particular, the efficacy of rifamicin SV was verified by means of an evaluation of the MIC (Minimum Inhibiting Concentration) on specific pathogenic bacterial strains, such as, for example, Escherichia coli, […], Proteus vulgaris, Pseudomonas aeruginosa, Salmonella typhi and Enterobacter cloacae as shown in the following Table A.

[2] = tested on: Enterobacter faecalis (ATCC 29212)
Excerpt: as §1

[3] = tested on: Escherichia coli (ATCC 30218)
Excerpt: as §1

[4] = tested on: Proteus vulgaris (ATCC 13315)
Excerpt: as §1

[5] = tested on: Pseudomonas aeruginosa (ATCC 27853)
Excerpt: as §1

[6] = tested on: Salmonella typhi (ATCC 13331)
Excerpt: as §1

[7] = tested on: Staphylococcus aureus (ATCC 25213)
Excerpt: as §1

## rifamicin SV
[1]
  MIC (Minimum Inhibiting Concentration): >400 µg/mL
[2]
  MIC (Minimum Inhibiting Concentration): 25 µg/mL
[3]
  MIC (Minimum Inhibiting Concentration): 400 µg/mL
[4]
  MIC (Minimum Inhibiting Concentration): 400 µg/mL
[5]
  MIC (Minimum Inhibiting Concentration): >400 µg/mL
[6]
  MIC (Minimum Inhibiting Concentration): >400 µg/mL
[7]
  MIC (Minimum Inhibiting Concentration): <0.4 µg/mL
